Assay results reported in patent US20070060636A1, “High enantiomeric purity dexanabinol for pharmaceutical compositions” (priority 2002, published 2007).
Read-outs that look alike come from different tables or passages of the source.

How the values were obtained:
[1] = single dose toxicity and pharmacokinetics, monkey; assay type: in vivo, Cynomolgus monkeys; conditions: for AUC(0-inf) / Cmax: plasma, single i.v. 50 mg/kg (NOAEL); for AUC∞ Ratio to Phase I / Cmax Ratio to Phase I / Cmax Ratio to Phase II: single i.v. 50 mg/kg; for AUC∞ Ratio to Phase I / Cmax Ratio to Phase I: vs human 150 mg Phase I; for Cmax Ratio to Phase II: vs human 150 mg Phase II
Experimental: The pharmacokinetics of dexanabinol of high enantiomeric purity formulated in CREMOPHOR EL®:ethanol as described in Example 4 were investigated in rats, rabbits, and monkeys following intravenous administration of single doses, and 14 and 28 days of repeated dosing. Human pharmacokinetics was studied during Phase I and Phase II clinical studies. Dexanabinol used in the pharmacokinetic studies was formulated as drug concentrates of 50 and 100 mg/ml and diluted with sterile 0.9% NaCl solution prior to intravenous (i.v.) administration to the desired final doses. Determination of dexanabinol concentrations in plasma and brain extracts was carried out using a validated Gas Chromatography-Mass Spectra (GC-MS) assay following solid phase extraction of the drug and derivatization. The limit of quantitation of the assay is 0.1 ng/ml.
(§1) Pharmacokinetic parameters were estimated by a non-compartmental method using WinNonlin Professional version 3.2 (Pharsight Corp., Mountain View, Calif.). The maximum plasma concentration (Cmax), when the drug is administered by infusion, is the concentration at the end of infusion. The Cmax following intravenous bolus administration is the value estimated by the software to be the concentration at t=0. The terminal slope (X) was estimated by linear regression through the last time points and used to calculate the terminal half-life (t1/2) from the following equation: t1/2=0.693/λ The area under the curve from time of dosing through the last time point (AUCz) was calculated by the linear trapezoid method. The AUC extrapolated to infinity (AUC∞) was calculated from the following equation: AUC∞=AUCz+Cz/λ where Cz is the concentration at the last time point predicted by the linear regression. AUC∞ was normalized for dose (mg/kg) and presented as AUC∞/Dose. Mean residence time (MRT), when the drug is administered by infusion is described by the following equation: MRT=(AUMC/AUC)−(TI)/2 Mean residence time after i.v. bolus administration is described by the following equation: MRT=(AUMC/AUC) where AUMC is the area under the first moment curve and TI is the length of infusion. Plasma clearance (CL), and the apparent volume of distribution at steady state (Vss) were calculated from the following equations: CL=Dose/AUC∞ Vss=MRT×CL
Table 6 summarizes the maximum plasma concentration (Cmax) and the area under the plasma concentration versus time curve (AUC) observed at the NOAEL doses cited above, as well as the animal to human exposure ratios (ER) for dexanabinol of high enantiomeric purity, expressed as the ratio of the pharmacokinetic (PK) parameter to that observed for a 150 mg dose in a Phase I study in human volunteers and in Phase II study in patients suffering from severe traumatic brain injury (TBI).

[2] = 1st Phase I study, rising single i.v. dose, healthy male volunteers; assay type: in vivo, human; conditions: for AUC∞/Dose: normalized for dose (mg/kg); for half-life / MRT / clearance / AUC / AUC(0-inf) / Cmax / Vd: male, human, plasma, iv; for AUC / AUC(0-inf) / Cmax: up to 24 hr; for Vd: read-out: Vss
Experimental: as §1
A Phase I, open label, single center study was conducted to evaluate the safety and tolerance of dexanabinol of high enantiomeric purity following a single intravenous administration to normal, healthy male volunteers (Brewster M. E. et al., International Journal Of Clinical Pharmacology and Therapeutics 35: 361-5, 1997). The trial was designed as a rising-dose tolerance study in healthy young male volunteers. In the study, seven groups of at least six subjects each (in the 100 mg dose n=9) received increasing doses (4, 8, 16, 32, 48, 100, 200 mg/volunteer) of dexanabinol. An additional group of 6 subjects received the vehicle alone. The lower doses, from 4 to 32 mg/volunteer, were included only in the safety segment of the study. Volunteers were followed-up up to 6 days after drug dosing for safety evaluation.
The pharmacokinetic segment of this study involved 27 healthy male subjects to assess the pharmacokinetic profile of 48, 100 and 200 mg i.v. doses of dexanabinol. Each dosing group, including vehicle control, consisted of 6 healthy male subjects, except for the 100 mg dosing group which contained nine subjects. On the pre-study day, volunteers were treated with 20 mg dexamethasone orally. On the study day, each group was premedicated with Chlorpheniramine maleate 10 mg (H1 blocker) and Cimetidine 300 mg (H2 blocker) intravenously, followed 30 minutes later by a single intravenous infusion of dexanabinol, administered using an Ivac peristaltic pump at a rate of 6 ml/min (approximately 15 min infusion/dose). Ten milliliters of blood were then removed (from the contralateral arm) at the end of the infusion, at 5, 10, 20, 30, 45 min, and at 1, 2, 3, 6, 12 and 24 hr post infusion. In some cases blood was also drawn 48 hr post end of infusion.
Mean pharmacokinetic parameters were estimated by non-compartmental methods up to 24 hr post-infusion for each dose group (mean±SE; n=6 or 9) using WinNonlin Professional version 3.2, (Pharsight Corp., Mountain view Calif.) and are presented in Table 8.

[3] = both sexes, cynomolgus monkey, iv, monkey male & female
[4] = cynomolgus monkey, iv, monkey female
[5] = cynomolgus monkey, iv, monkey male
[6] = 48 mg single i.v. infusion, healthy volunteers, mean ± SE
[7] = 100 mg single i.v. infusion, healthy volunteers, mean ± SE
[8] = 200 mg single i.v. infusion, healthy volunteers, mean ± SE

Work on CCCCCCC(C)(C)c1cc(O)c2c(c1)OC(C)(C)[C@H]1CC=C(CO)C[C@H]21 [dexanabinol, 1,1-dimethylheptyl-(3S,4S)-7-hydroxy-Δ^6-tetrahydrocannabinol] yielded an AUC(0-inf) [1, 3] of 127000 ng·h/mL, a Cmax [1, 3] of 171000 ng/mL and an NOAEL ([1]; cynomolgus monkey, in vivo, iv, single dose i.v., read-out: no observed adverse effect level (NOAEL)) of 50 mg/kg. The AUC(0-inf) [1, 4] was 136000 ng·h/mL, the Cmax [1, 4] was 175000 ng/mL and the AUC(0-inf) [1, 5] was 117000 ng·h/mL. The Cmax [1, 5] was 167000 ng/mL, the “AUC∞ Ratio to Phase I” value ([1]; monkey female) was 42.4 and the “Cmax Ratio to Phase I” value ([1]; monkey female) was 35.0. The “Cmax Ratio to Phase II” value ([1]; monkey female) was 89.0, the “AUC∞ Ratio to Phase I” value ([1]; monkey male & female) was 39.5 and the “Cmax Ratio to Phase I” value ([1]; monkey male & female) was 34.2. For the same compound, the “Cmax Ratio to Phase II” value ([1]; monkey male & female) was 86.9, the “AUC∞ Ratio to Phase I” value ([1]; monkey male) was 36.6 and the “Cmax Ratio to Phase I” value ([1]; monkey male) was 33.4. For the same compound, the “Cmax Ratio to Phase II” value ([1]; monkey male) was 84.9, the “AUC∞/Dose” value [2, 6] was 72,469 ± 8,774 ng × min/ml and the “AUC∞/Dose” value [2, 7] was 59,374 ± 4,742 ng × min/ml. For the same compound, the “AUC∞/Dose” value [2, 8] was 48,162 ± 3,355 ng × min/ml, the Plasma concentrations ([2]; after a 48 mg dose (0.62 mg/kg)) was “approximately 1.8 μg/ml” and the Plasma concentrations ([2]; at 100 mg (1.29 mg/kg)) was roughly 2900 ng/mL. For the same compound, the Plasma concentrations ([2]; at 200 mg (2.59 mg/kg)) was roughly 4600 ng/mL, the half-life ([2]; 48 mg, 48 mg single i.v. infusion, healthy volunteers, mean ± SE, read-out: t1/2 (converted)) was 6.3 ± 0.7 h and the half-life ([2]; 100 mg, 100 mg single i.v. infusion, healthy volunteers, mean ± SE, read-out: t1/2 (converted)) was 6.1 ± 0.7 h. For the same compound, the half-life ([2]; 200 mg, 200 mg single i.v. infusion, healthy volunteers, mean ± SE, read-out: t1/2 (converted)) was 8.2 ± 0.7 h, the half-life ([2]; single i.v. infusion 48, 100, 200 mg, read-out: distributional phase half-life) was 0.0333 to 0.05 h and the half-life ([2]; single i.v. infusion 48, 100, 200 mg, read-out: intermediate phase elimination half-life) was 1 to 2 h. The half-life ([2]; single i.v. infusion 48, 100, 200 mg, read-out: terminal elimination phase half-life) was 8.5 to 9.5 h, the MRT [2, 6] was 3.1 ± 0.2 h and the clearance [2, 6] was 14.9 ± 1.9 mL/min/kg. For the same compound, the AUC [2, 6] was 710 ng·h/mL, the AUC(0-inf) [2, 6] was 725 ng·h/mL and the Cmax [2, 6] was 1860 ng/mL. It also gave a Vd [2, 6] of 2.8 ± 0.4 L/kg, an MRT [2, 7] of 3.1 ± 0.3 h and a clearance [2, 7] of 17.8 ± 1.5 mL/min/kg. The AUC [2, 7] was 1200 ng·h/mL, the AUC(0-inf) [2, 7] was 1220 ng·h/mL and the Cmax [2, 7] was 2890 ng/mL. For the same compound, the Vd [2, 7] was 3.4 ± 0.4 L/kg, the MRT [2, 8] was 4 ± 0.6 h and the clearance [2, 8] was 21.3 ± 1.6 mL/min/kg. For the same compound, the AUC [2, 8] was 2240 ng·h/mL, the AUC(0-inf) [2, 8] was 2320 ng·h/mL and the Cmax [2, 8] was 4570 ng/mL. For the same compound, the Vd [2, 8] was 5 ± 0.7 L/kg, the “acute doses found safe” value ([2]; single i.v.) was no more than 200 mg per subject and the “tolerability of drug administration” value ([2]; single i.v. 4 to 200 mg/volunteer) was “well tolerated”.
